# Data taken from US6342601B1, “Compounds” (AstraZeneca AB, priority 1997, dated 2002).
# Counter-ions that a name gives are not always drawn.
row,SMILES,melting point
1,"CC(C)Cc1nn(C)c(=O)c2cc(Cc3cccc4ccccc34)oc12 [Example 36, 5-Methyl-7-(2-methylpropyl)-2-(1-naphthalenylmethyl)furo[2,3-d]pyridazin-4(5H)one]",73 to 75 °C
2,"COc1cc(Cn2cc3c(CC(C)C)nn(C)c(=O)c3c2)cc(OC)c1OC [Example 21, 2,6-Dihydro-2-methyl-4-(2-methylpropyl)-6-(3,4,5-trimethoxyphenyl)methyl-1H-pyrrolo[3,4-d]pyridazin-1-one]",154.5 to 155 °C
3,"CC(C)Cc1nn(C)c(=O)c2cc(Cc3cccnc3)sc12 [Example 41, 5Methyl-7-(2-methylpropyl)-2-(3-pyridinylmethyl)thieno[2,3-d]pyridazin-4(5H)-one]",118 to 119 °C
4,"CC(C)Cc1nn(C)c(=O)c2cn(Cc3ccccc3)cc12 [Example 18, 2,6-Dihydro-2-methyl-4-(2-methylpropyl)-6-phenylmethyl-1H-pyrrolo[3,4-d]pyridazin-1-one]",104 °C
5,"CC(C)Cc1nn(C)c(=O)c2c(SCCCO)c(Cc3ccccc3)sc12 [Example 16, 3-[(3-Hydroxypropy)thio]-5-methyl-7-(2-methylpropyl)-2-phenylmethylthieno[2,3-d]pyridazin-4(5H)-one]",60 to 65 °C
6,"CC(C)Cc1nn(C)c(=O)c2cn(Cc3cccc4ccccc34)nc12 [Example 32, 2,5-Dihydro-5-methyl-7-(2-methylpropyl)-2-(1-naphthalenylmethyl)-4H-pyrazolo[3,4-d]pyridazin-4-one]",166 to 167 °C
7,"CC(C)Cc1nn(C)c(=O)c2cc(Cc3c(F)cccc3Cl)sc12 [Example 42, 2-(2-Chloro-6-fluorophenyl)methyl-5-methyl-7-(2-methylpropyl)thieno[2,3-d]pyridazin-4(5H)-one]",85 to 86 °C
8,"CC(C)Cc1nn(C)c(=O)c2c(S(=O)(=O)CCCO)c(Cc3ccccc3)sc12 [Example 17, 3-[(3-Hydroxypropyl)sulfonyl]-5-methyl-7-(2-methylpropyl)-2-phenylmethylthieno[2,3-d]pyridazin-4(5H)-one]",105 to 107 °C
9,"CC(C)Cc1nn(C)c(=O)c2cc(Cc3cccc(C#N)c3)oc12 [Example 38, 2-(3-Cyanophenyl)methyl-5-methyl-7-(2-methylpropyl)furo[2,3-d]pyridazin-4(5H)one]",76 to 78 °C
10,CC(C)Cc1nn(C)c(=O)c2nn(Cc3cccc4ccccc34)cc12 [Example 33],163 to 164 °C
11,"CC(C)Cc1nn(C)c(=O)c2cc(C(O)c3cccc4ccccc34)oc12 (stereo not drawn) [Example 35, 2-[1-Hydroxy-1-(1-naphthalenyl)methyl]-5-methyl-7-(2-methylpropyl)furo[2,3-d]pyridazin-4(5H)one]",110 to 112 °C
12,"CC(C)Cc1nn(C)c(=O)c2cc(Cc3ccccc3)sc12 [Example 15, 5-Methyl-7-(2-methylpropyl)-2-phenylmethylthieno[2,3-d]pyridazin-4(5H)-one]",97 to 98 °C
13,"CC(C)Nc1nn(C)c(=O)c2cn(Cc3cccc4ccccc34)cc12 [Example 22, 2,6-Dihydro-2-methyl-6-(1-naphthalenylmethyl)-4-(1-methylethyl)amino-1H-pyrrolo[3,4-d]pyridazin-1-one]",221 to 222 °C
14,"CC(C)Cc1nn(C)c(=O)c2cc(Cc3ccccc3C(F)(F)F)sc12 [Example 39, 2-(2-Trifluoromethylphenyl)methyl-5-methyl-7-(2-methylpropyl)thieno[2,3-d]pyridazin-4(5H)-one]",112 to 114 °C
15,"CC(C)Cc1nn(C)c(=O)c2cc(C(O)c3cccc(C#N)c3)oc12 (stereo not drawn) [Example 37, 2-[1-Hydroxy-1-(3-cyanophenyl)methyl]-5-methyl-7-(2-methylpropyl)furo[2,3-d]pyridazin4(5H)one]",106 to 108 °C
16,"CC(C)Cc1nn(C)c(=O)c2c(S(=O)(=O)CCCO)c(Cc3cccc4ccccc34)sc12 [Example 13, 3-[(3-Hydroxypropyl)sulfonyl]-5-methyl-7-(2-methylpropyl)-2-(1-naphthalenylmethyl)thieno[2,3-d]pyridazin-4(5H)-one]",160 to 163 °C
17,"CC(C)Cc1nn(C)c(=O)c2cc(Cc3cnc4ccccc4c3)sc12 (as salt: hydrochloride) [Example 44, 5-Methyl-7-(2-methylpropyl)-2-(3-quinolinylmethyl)thieno[2,3-d]pyridazin-4(5H)-one Hydrochloride]",> 230 °C (dec.)
18,"CC(C)Cc1nn(C)c(=O)c2c(SCCCO)n(Cc3ccccc3)cc12 [Example 20, 2,6-Dihydro-7-[(3-hydroxypropyl)thio]-2-methyl-4-(2-methylpropyl)-6-phenylmethyl-1H-pyrrolo[3,4-d]pyridazin-1-one]",91 to 92 °C
19,"CC(C)Cc1nn(C)c(=O)c2cc(C(O)c3cccc4ccccc34)sc12 (stereo not drawn) [Example 6, 2-[1-Hydroxy-1-(1-naphthalenyl)methyl]-5-methyl-7-(2-methylpropyl)thieno[2,3-d]pyridazin-4(5H)-one]",165 to 167 °C
20,"CC(C)Cc1nn(C)c(=O)c2c(Sc3ccccn3)n(Cc3ccccc3)cc12 [Example 19, 2,6-Dihydro-2-methyl-4-(2-methylpropyl)-6-phenylmethyl-7-(2-pyridinylthio)-1H-pyrrolo[3,4-d]pyridazin-1-one]",131 to 132 °C
21,"COCCn1nc(CC(C)C)c2cn(Cc3cccc4ccccc34)cc2c1=O [Example 2, 2,6-Dihydro-2-(2-methoxyethyl)-4-(2-methylpropyl)-6-(1-naphthalenylmethyl)-1H-pyrrolo[3,4-d]pyridazin-1-one]",96 to 98 °C
22,"CC(C)Cc1nn(C)c(=O)c2cn(Cc3ccncc3)cc12 [Example 23, 2,6-Dihydro-2-methyl-4-(2-methylpropyl)-6-(4-pyridinyl)methyl-1H-pyrrolo[3,4-d]pyridazin-1-one]",91 to 93 °C
23,"CC(C)Cc1nn(C)c(=O)c2cc(C(O)c3cccnc3)sc12 (stereo not drawn) (as salt: hydrochloride) [Example 40, 2-[(1-Hydroxy-1-pyridin-3-yl)methyl]-5-methyl-7-(2-methylpropyl)thieno[2,3-d]pyridazin-4(5H)-one Hydrochloride]",154 to 156 °C
24,"CC(C)Cc1nn(C)c(=O)c2c(SCCCC(=O)O)c(Cc3cccc4ccccc34)sc12 [Example 11, 4-{[4,5-Dihydro-5-methyl-7-(2-methylpropyl)-2-(1-naphthalenylmethyl)-4-oxothieno[2,3-d]pyridazin-3-yl]thio}butanoic Acid]",154 to 156 °C
25,"CC(C)Cc1nn(C)c(=O)c2c([S+]([O-])CCCO)n(Cc3cccc4ccccc34)cc12 (stereo not drawn) [Example 5 (A), 2,6-Dihydro-7-[(3-hydroxypropyl)sulfinyl]-2-methyl-4-(2-methylpropyl)-6-(1-naphthalenylmethyl)-1H-pyrrolo[3,4-d]pyridazin-1-one]",164 to 166 °C
26,"CC(C)Cc1nn(C)c(=O)c2c([S+]([O-])CCCO)c(Cc3cccc4ccccc34)sc12 (stereo not drawn) [Example 10, 3[(3-Hydroxypropyl)sulfinyl]-5-methyl-7-(2-methylpropyl)-2-(1-naphthalenylmethyl)thieno[2,3-d]pyridazin-4(5H)-one]",60 to 65 °C
27,"CC(C)Cc1nn(C)c(=O)c2c(SCCCO)n(Cc3cccc4ccccc34)nc12 [Example 34, 2,5-Dihydro-3-[(3-hydoxypropyl)thio]-5-methyl-7-(2-methylpropyl)-2-(1-naphthalenylmethyl)-4H-pyrazolo[3,4-d]pyridazin-4-one]",141 to 142 °C
28,"CC(C)Cc1nn(C)c(=O)c2cn(Cc3cccc4ccccc34)cc12 [Example 1, 2,6-Dihydro-2-methyl-4-(2-methylpropyl)-6-(1-naphthalenylmethyl)-1H-pyrrolo[3,4-d]pyridazin-1-one]",110 to 112 °C
29,"CC(C)Cc1nn(C)c(=O)c2cc(C(=O)c3cccc4ccccc34)sc12 [Example 9, 5-Methyl-7-(2-methylpropyl)-2-(1-naphthalenylcarbonyl)thieno[2,3-d]pyridazin-4(5H)-one]",121 °C
30,"CC(C)Cc1nn(C)c(=O)c2c(SCCCC(=O)O)n(Cc3cccc4ccccc34)cc12 [Example 4, 4-{[2,6-Dihydro-2-methyl-4-(2-methylpropyl)-6-(1-naphthalenylmethyl)-1-oxo-1H-pyrrolo[3,4-d]pyridazin-7-yl]thio}butanoic Acid]",167 °C
